≈ marks a conversion by molar mass, not a printed value. Like-named read-outs stand apart in the source and are kept apart here.
How the values were obtained:
[1] = system: tobacco mosaic virus (TMV); assay: Anti-TMV curative activity (treatment mode), live friction inoculation on tobacco seedlings; format: in vivo; conditions: Tobacco mosaic virus, read-out: Anti-TMV activity, Curative effect (inhibition), 100 μg/mL, tobacco seedlings, checked on seventh day
[2] = system: tobacco mosaic virus (TMV); assay: Anti-TMV inactivation activity (inactivation mode), compound mixed with TMV before inoculation of tobacco leaves; format: in vivo; conditions: Tobacco mosaic virus, read-out: Anti-TMV activity, Inactivation effect (inhibition)
[3] = system: tobacco mosaic virus (TMV); assay: Anti-TMV protective activity (protection mode), live friction inoculation on tobacco seedlings; format: in vivo; conditions: Tobacco mosaic virus, read-out: Anti-TMV activity, Protection effect (inhibition)
[4] = system: tobacco mosaic virus (TMV); assay: Anti-TMV inducing activity (induction mode), tobacco seedlings; format: in vivo; conditions: Tobacco mosaic virus, read-out: Anti-TMV activity, Induction effect (inhibition), 100 μg/mL, tobacco seedlings
Alternaria solani = assay: Fungicidal activity, fungi growth rate method, AS; format: cell-based; conditions: Alternaria solani, 50 μg/mL
Botrytis cinerea = assay: Fungicidal activity, fungi growth rate method, BC; format: cell-based; conditions: Botrytis cinerea, 50 μg/mL
Cercospora arachidicola = assay: Fungicidal activity, fungi growth rate method, CA; format: cell-based; conditions: Mycosphaerella arachidis, 50 μg/mL
wheat Gibberella zeae = assay: microbe, parasite or virus in culture; format: cell-based; conditions: Fusarium graminearum
[5] = system: Phytophthora infestans (Mont) de Bary; assay: microbe, parasite or virus in culture; format: cell-based; conditions: Phytophthora infestans
Physalospora piricola = assay: Fungicidal activity, fungi growth rate method, PP; format: cell-based; conditions: 50 μg/mL
Pellicularia sasakii = assay: Fungicidal activity, fungi growth rate method, PS; format: cell-based; conditions: 50 μg/mL
Rhizoctonia cerealis = assay: Fungicidal activity, fungi growth rate method, RC; format: cell-based; conditions: Ceratobasidium cereale, 50 μg/mL
Sclerotinia sclerotiorum = assay: microbe, parasite or virus in culture; format: cell-based; conditions: Sclerotinia sclerotiorum; for inhibition at 50 µg/mL: 50 μg/mL
[6] = read-out: Fungicidal activity, inhibition, AS
[7] = read-out: Fungicidal activity, inhibition, BC
[8] = read-out: Fungicidal activity, inhibition, CA
[9] = read-out: Fungicidal activity, inhibition, GZ
[10] = read-out: Fungicidal activity, inhibition, PI
[11] = read-out: Fungicidal activity, inhibition, PP
[12] = read-out: Fungicidal activity, inhibition, PS
[13] = read-out: Fungicidal activity, inhibition, RC
[14] = read-out: Fungicidal activity, inhibition, SS
[15] = read-out: Fungicidal activity (inhibition) against SS: Sclerotinia sclerotiorum

Row | SMILES | inhibition at 100 µg/mL [1] [%] | inhibition at 100 µg/mL [2] [%] | inhibition at 100 µg/mL [3] [%] | inhibition at 100 µg/mL [4] [%] | inhibition at 50 µg/mL (Alternaria solani; [6]) [%] | inhibition at 50 µg/mL (Botrytis cinerea; [7]) [%] | inhibition at 50 µg/mL (Cercospora arachidicola; [8]) [%] | inhibition at 50 µg/mL (wheat Gibberella zeae; [9]) [%] | inhibition at 50 µg/mL [5, 10] [%] | inhibition at 50 µg/mL (Physalospora piricola; [11]) [%] | inhibition at 50 µg/mL (Pellicularia sasakii; [12]) [%] | inhibition at 50 µg/mL (Rhizoctonia cerealis; [13]) [%] | inhibition at 50 µg/mL (Sclerotinia sclerotiorum; [14]) [%] | melting point [°C] | inhibition at 50 µg/mL (Sclerotinia sclerotiorum; [15]) [%] | other results
1 | O=C(NCc1cccc(Br)c1)/C(=C/c1ccccc1)NC(=O)c1ccccc1 [Compound 51, N-[(1Z)-2-phenyl-1-[[(3-bromophenylmethyl)amino]carbonyl]ethenyl]benzamide] | 12 | 69 | 11 | 14 | 25 | 24 | 15 | 43 | 21 | 18 | 14 | 28 | 50 | 180 to 182 |  | 
2 | O=C(NCc1ccccc1Br)/C(=C/c1ccccc1)NC(=O)c1ccccc1 [Compound 52, N-[(1Z)-2-phenyl-1-[[(2-bromophenylmethyl)amino]carbonyl]ethenyl]benzamide] | 12 | 31 | 20 | 47 | 11 | 18 | 11 | 29 | 16 | 6 | 14 | 18 | 38 | 178 to 180 |  | 
3 | O=C(NCc1ccccc1)/C(=C/c1ccccc1)NC(=O)c1ccccc1 [Compound 53, N-[(1Z)-2-phenyl-1-[[(phenylmethyl)amino]carbonyl]ethenyl]benzamide] | 55 | 58 | 33 | 0 | 16 | 16 | 18 | 23 | 5 | 13 | 8 | 5 | 75 | 169 to 171 | 75 | inhibition at 50 µg/mL (Alternaria solani; read-out: Fungicidal activity (inhibition) against AS: Alternaria solani): < 30%; inhibition at 50 µg/mL (Botrytis cinerea; read-out: Fungicidal activity (inhibition) against BC: Botrytis cinerea): ≤ 20%; inhibition at 50 µg/mL (Cercospora arachidicola; read-out: Fungicidal activity (inhibition) against CA: Cercospora arachidicola): < 25%; inhibition at 50 µg/mL (wheat Gibberella zeae; read-out: Fungicidal activity (inhibition) against GZ: wheat Gibberella zeae): < 45%; inhibition at 50 µg/mL ([5]; read-out: Fungicidal activity (inhibition) against PI: Phytophthora infestans (Mont) de Bary): < 25%; inhibition at 50 µg/mL (Physalospora piricola; read-out: Fungicidal activity (inhibition) against PP: Physalospora piricola): < 20%; inhibition at 50 µg/mL (Pellicularia sasakii; read-out: Fungicidal activity (inhibition) against PS: Pellicularia sasakii): < 30%; inhibition at 50 µg/mL (Rhizoctonia cerealis; read-out: Fungicidal activity (inhibition) against RC: Rhizoctonia cerealis): < 20%
4 | COc1ccc(CNC(=O)/C(=C/c2ccccc2)NC(=O)c2ccccc2)cc1 [Compound 54, N-[(1Z)-2-phenyl-1-[[(4-methoxyphenylmethyl)amino]carbonyl]ethenyl]benzamide] | 49 | 28 | 0 | 0 | 16 | 12 | 16 | 42 | 2 | 13 | 17 | 17 | 75 | 138 to 140 | 60 to 80 | 
5 | O=C(NCc1ccc(F)cc1)/C(=C/c1ccccc1)NC(=O)c1ccccc1 [Compound 55, N-[(1Z)-2-phenyl-1-[[(4-fluorophenylmethyl)amino]carbonyl]ethenyl]benzamide] | 45 | 59 | 0 | 4 | 28 | 12 | 10 | 34 | 19 | 21 | 12 | 12 | 75 | 199 to 201 | 60 to 80 | 
6 | O=C(NCc1ccc(Cl)cc1)/C(=C/c1ccccc1)NC(=O)c1ccccc1 [Compound 56, N-[(1Z)-2-phenyl-1-[[(4-chlorophenylmethyl)amino]carbonyl]ethenyl]benzamide] | 30 | 58 | 0 | 4 | 24 | 22 | 14 | 19 | 5 | 4 | 12 | 17 | 100 | 202 to 204 | 100 | EC90 (Sclerotinia sclerotiorum; read-out: EC90 against S. sclerotiorum in vitro): 1260 mg/L (≈ 3.21 mM)
7 | O=C(NCc1ccc(C(F)(F)F)cc1)/C(=C/c1ccccc1)NC(=O)c1ccccc1 [Compound 57, N-[(1Z)-2-phenyl-1-[[(4-trifluoromethylphenylmethyl)amino]carbonyl]ethenyl]benzamide] | 52 | 61 | 4 | 0 | 16 | 10 | 4 | 31 | 0 | 0 | 19 | 10 | 50 | 167 to 168 |  | 
8 | O=C(NCc1cccs1)/C(=C/c1ccccc1)NC(=O)c1ccccc1 [Compound 58, N-[(1Z)-2-phenyl-1-[[(2-thienylmethyl)amino]carbonyl]ethenyl]benzamide] | 17 | 0 | 0 | 2 | 21 | 18 | 6 | 29 | 21 | 9 | 14 | 18 | 47 | 210 to 212 |  | 
9 | O=C(NCc1ccc(Br)cc1)/C(=C/c1ccccc1)NC(=O)C1CC1 [Compound 59, N-[(1Z)-2-phenyl-1-[[(4-bromophenylmethyl)amino]carbonyl]ethenyl]cyclopropanecarboxamide] | 80 | 39 | 41 | 26 | 16 | 18 | 22 | 16 | 10 | 8 | 19 | 24 | 75 | 187 to 189 | 60 to 80 | 
10 | O=C(NCc1ccc(Br)cc1)/C(=C/c1ccccc1)NC(=O)C1CCCCC1 [Compound 60, N-[(1Z)-2-phenyl-1-[[(4-bromophenylmethyl)amino]carbonyl]ethenyl]cyclohexanecarboxamide] | 16 | 53 | 28 | 18 | 21 | 18 | 18 | 57 | 16 | 12 | 9 | 23 | 38 | 215 to 216 |  | 
11 | O=C(OCc1ccc(Br)cc1)/C(=C/c1ccccc1)NC(=O)c1ccccc1 [Compound 61, N-[(1Z)-2-phenyl-1-[(4-bromophenymethoxyl)carbonyl]ethenyl]benzamide] | 0 | 13 | 16 | 0 | 25 | 18 | 12 | 29 | 11 | 6 | 9 | 13 | 44 | 168 to 170 |  | 
